Measured values reported in ChEMBL document CHEMBL3885881, “DrugMatrix”.

Organism: Rattus norvegicus
Experiment: DrugMatrix - Regimen: Daily Repeat
Format: toxicity, organism-based, Sprague-Dawley
Set-up: regimen Daily Repeat, gender Male, age 6-8 weeks
Conditions: in vivo, po, route oral GAVAGE, […]; for ABSOLUTE BASOPHIL / ABSOLUTE EOSINOPHIL / ABSOLUTE LYMPHOCYTE / ABSOLUTE MONOCYTE / ABSOLUTE SEGMENTED NEUTROPHIL / BASOPHIL / EOSINOPHIL / ERYTHROCYTE COUNT / HEMATOCRIT / HEMOGLOBIN / LEUKOCYTE COUNT / LYMPHOCYTE / MEAN CORPUSCULAR HEMOGLOBIN / MEAN CORPUSCULAR HEMOGLOBIN CONCENTRATION / MEAN CORPUSCULAR VOLUME / MONOCYTE / NEUTROPHIL / NUCLEATED RED BLOOD CELLS / PLATELET COUNT: tissue Blood; for ALANINE AMINOTRANSFERASE / ALBUMIN / ALKALINE PHOSPHATASE / ASPARTATE AMINOTRANSFERASE / BLOOD UREA NITROGEN / CARBON DIOXIDE / CHLORIDE / CHOLESTEROL / CREATINE PHOSPHOKINASE / CREATININE / GLUCOSE / LACTATE DEHYDROGENASE / LIPASE / PHOSPHORUS / POTASSIUM / SODIUM / TOTAL BILIRUBIN / TOTAL PROTEIN / URIC ACID: tissue Plasma
[1] = 100 mg/kg, 120 h, dose level M1, time 5 day
[2] = 610 mg/kg, 72 h, dose level High, time 3 day
[3] = 610 mg/kg, 120 h, dose level High, time 5 day

## CC(C)(c1ccc(O)cc1)c1ccc(O)cc1 [BISPHENOL A]
[1]
  ABSOLUTE BASOPHIL: 0 CELLS/uL
  ABSOLUTE EOSINOPHIL: 0 CELLS/uL
  ABSOLUTE LYMPHOCYTE: 6683.33 CELLS/uL
  ABSOLUTE MONOCYTE: 63.33 CELLS/uL
  ABSOLUTE SEGMENTED NEUTROPHIL: 353.33 CELLS/uL
  BASOPHIL: 0%
  EOSINOPHIL: 0%
  ERYTHROCYTE COUNT: 5.4 x10E6/uL
  HEMATOCRIT: 32.4%
  HEMOGLOBIN: 12.83 G/DL
  LEUKOCYTE COUNT: 7.1 x10E3/uL
  LYMPHOCYTE: 94%
  MEAN CORPUSCULAR HEMOGLOBIN: 23.8 pg
  MEAN CORPUSCULAR HEMOGLOBIN CONCENTRATION: 39.63 G/DL
  MEAN CORPUSCULAR VOLUME: 59.87 fL
  MONOCYTE: 1%
  NEUTROPHIL: 5%
  NUCLEATED RED BLOOD CELLS: 0 /100WBC
  PLATELET COUNT: 1281.67 x10E3/uL
  ALANINE AMINOTRANSFERASE: 80.33 u/L
  ALBUMIN: 4.13 G/DL
  ALKALINE PHOSPHATASE: 398.67 u/L
  ASPARTATE AMINOTRANSFERASE: 90.33 u/L
  BLOOD UREA NITROGEN: 13.33 mg/dL
  CARBON DIOXIDE: 29.33 mmol/L
  CHLORIDE: 100.33 MEQ/L
  CHOLESTEROL: 54.67 mg/dL
  CREATINE PHOSPHOKINASE: 295 u/L
  CREATININE: 0.26 mg/dL
  GLUCOSE: 161 mg/dL
  LACTATE DEHYDROGENASE: 102.33 u/L
  LIPASE: 13.33 u/L
  PHOSPHORUS: 9.57 mg/dL
  POTASSIUM: 5.37 MEQ/L
  SODIUM: 144.17 MEQ/L
  TOTAL BILIRUBIN: 0.17 mg/dL
  TOTAL PROTEIN: 5.77 G/DL
  URIC ACID: 0.83 mg/dL
[2]
  ABSOLUTE BASOPHIL: 0 CELLS/uL
  ABSOLUTE EOSINOPHIL: 22.33 CELLS/uL
  ABSOLUTE LYMPHOCYTE: 6406 CELLS/uL
  ABSOLUTE MONOCYTE: 44.67 CELLS/uL
  ABSOLUTE SEGMENTED NEUTROPHIL: 760.33 CELLS/uL
  BASOPHIL: 0%
  EOSINOPHIL: 0.33%
  ERYTHROCYTE COUNT: 5.65 x10E6/uL
  HEMATOCRIT: 34.33%
  HEMOGLOBIN: 13.43 G/DL
  LEUKOCYTE COUNT: 7.23 x10E3/uL
  LYMPHOCYTE: 88.33%
  MEAN CORPUSCULAR HEMOGLOBIN: 23.77 pg
  MEAN CORPUSCULAR HEMOGLOBIN CONCENTRATION: 39.1 G/DL
  MEAN CORPUSCULAR VOLUME: 60.8 fL
  MONOCYTE: 0.67%
  NEUTROPHIL: 10.67%
  NUCLEATED RED BLOOD CELLS: 0.33 /100WBC
  PLATELET COUNT: 1156 x10E3/uL
  ALANINE AMINOTRANSFERASE: 84.33 u/L
  ALBUMIN: 3.93 G/DL
  ALKALINE PHOSPHATASE: 316.33 u/L
  ASPARTATE AMINOTRANSFERASE: 77.67 u/L
  BLOOD UREA NITROGEN: 15.67 mg/dL
  CARBON DIOXIDE: 31.33 mmol/L
  CHLORIDE: 100 MEQ/L
  CHOLESTEROL: 64.33 mg/dL
  CREATINE PHOSPHOKINASE: 263.67 u/L
  CREATININE: 0.18 mg/dL
  GLUCOSE: 157.33 mg/dL
  LACTATE DEHYDROGENASE: 115.67 u/L
  LIPASE: 10 u/L
  PHOSPHORUS: 10.37 mg/dL
  POTASSIUM: 5.53 MEQ/L
  SODIUM: 143.73 MEQ/L
  TOTAL BILIRUBIN: 0.27 mg/dL
  TOTAL PROTEIN: 5.73 G/DL
  URIC ACID: 0.7 mg/dL
[3]
  ABSOLUTE BASOPHIL: 0 CELLS/uL
  ABSOLUTE EOSINOPHIL: 0 CELLS/uL
  ABSOLUTE LYMPHOCYTE: 8347 CELLS/uL
  ABSOLUTE MONOCYTE: 82 CELLS/uL
  ABSOLUTE SEGMENTED NEUTROPHIL: 671 CELLS/uL
  BASOPHIL: 0%
  EOSINOPHIL: 0%
  ERYTHROCYTE COUNT: 5.73 x10E6/uL
  HEMATOCRIT: 35.8%
  HEMOGLOBIN: 14.07 G/DL
  LEUKOCYTE COUNT: 9.1 x10E3/uL
  LYMPHOCYTE: 91.67%
  MEAN CORPUSCULAR HEMOGLOBIN: 24.6 pg
  MEAN CORPUSCULAR HEMOGLOBIN CONCENTRATION: 39.3 G/DL
  MEAN CORPUSCULAR VOLUME: 62.63 fL
  MONOCYTE: 0.67%
  NEUTROPHIL: 7.67%
  NUCLEATED RED BLOOD CELLS: 0.33 /100WBC
  PLATELET COUNT: 1180 x10E3/uL
  ALANINE AMINOTRANSFERASE: 106.33 u/L
  ALBUMIN: 4.3 G/DL
  ALKALINE PHOSPHATASE: 452.33 u/L
  ASPARTATE AMINOTRANSFERASE: 135.67 u/L
  BLOOD UREA NITROGEN: 12 mg/dL
  CARBON DIOXIDE: 29 mmol/L
  CHLORIDE: 100.5 MEQ/L
  CHOLESTEROL: 60.33 mg/dL
  CREATINE PHOSPHOKINASE: 592 u/L
  CREATININE: 0.11 mg/dL
  GLUCOSE: 154 mg/dL
  LACTATE DEHYDROGENASE: 112 u/L
  LIPASE: 48.33 u/L
  PHOSPHORUS: 8.77 mg/dL
  POTASSIUM: 5.17 MEQ/L
  SODIUM: 144.95 MEQ/L
  TOTAL BILIRUBIN: 0.27 mg/dL
  TOTAL PROTEIN: 5.53 G/DL
  URIC ACID: 0.6 mg/dL
